A short description of this series: Rat biodistribution of Tc-99m complexes.

The source of these data is patent publication US5045302A, “Ligands and cationic complexes thereof with technetium-99m” (priority 1988, dated 1991).

`CCOCCP(CCOCC)CCP(CCOCC)CCOCC` [Compound 1, (EtOC2 H4)2 P--C2 H4 --P(C2 H4 OEt)2]: for the setting “2 min p.i.”, the Blood is given as 2.25 % Injected dose/organ, the Heart was 1.66 % Injected dose/organ, the “Heart/Blood Counts/Gram Ratio” value amounted to 10.5 and the “Heart/Liver Counts/Gram Ratio” value turned out to be 1.52. The compound also yielded a Liver (2 min p.i.) of 14.1 % Injected dose/organ. Also, under “60 min p.i.”, the Blood is 0.28 % Injected dose/organ, the Heart came to 1.68 % Injected dose/organ, the “Heart/Blood Counts/Gram Ratio” value came to 86.4 and the “Heart/Liver Counts/Gram Ratio” value was 14.4. Moreover, the Liver (60 min p.i.) worked out at 1.62 % Injected dose/organ.

On to `COCCP(CCOC)CCP(CCOC)CCOC` [Compound 2], for which, where the note is “2 min p.i.”, the Blood worked out at 19.85 % Injected dose/organ, the Heart worked out at 0.66 % Injected dose/organ, the “Heart/Blood Counts/Gram Ratio” value is 0.44 and the “Heart/Liver Counts/Gram Ratio” value was 1.57. Under “2 min p.i.”, this compound showed a Liver of 5.90 % Injected dose/organ. Moreover, under “60 min p.i.”, the Blood is 0.54 % Injected dose/organ, the Heart was 0.17 % Injected dose/organ, the “Heart/Blood Counts/Gram Ratio” value is 5.4 and the “Heart/Liver Counts/Gram Ratio” value is listed as 1.17. This compound had a Liver (60 min p.i.) of 2.37 % Injected dose/organ.

For the compound `CCOCCCP(CCCOCC)CCP(CCCOCC)CCCOCC` [Compound 4], where the note is “2 min p.i.”, the Blood is recorded as 7.46 % Injected dose/organ, the Heart amounted to 1.00 % Injected dose/organ, the “Heart/Blood Counts/Gram Ratio” value was determined as 1.96 and the “Heart/Liver Counts/Gram Ratio” value is given as 0.81. The Liver (2 min p.i.) is recorded as 18.8 % Injected dose/organ. For the setting “60 min p.i.”, the Blood is on record as 0.73 % Injected dose/organ, the Heart turned out to be 0.96 % Injected dose/organ, the “Heart/Blood Counts/Gram Ratio” value worked out at 20.0 and the “Heart/Liver Counts/Gram Ratio” value is given as 2.13. The same compound gave a Liver (60 min p.i.) of 6.96 % Injected dose/organ.

For `CCOCP(CCP(COCC)COCC)COCC` [Compound 5], where the note is “2 min p.i.”, the Blood was determined as 12.4 % Injected dose/organ, the Heart came to 0.54 % Injected dose/organ, the “Heart/Blood Counts/Gram Ratio” value amounted to 0.68 and the “Heart/Liver Counts/Gram Ratio” value worked out at 0.20. This compound also yielded a Liver (2 min p.i.) of 33.1 % Injected dose/organ. Where the note is “60 min p.i.”, the Blood is listed as 1.63 % Injected dose/organ, the Heart is listed as 0.27 % Injected dose/organ, the “Heart/Blood Counts/Gram Ratio” value came out at 2.6 and the “Heart/Liver Counts/Gram Ratio” value was 0.37. The Liver (60 min p.i.) is on record as 8.85 % Injected dose/organ.

Consider `CCOC=CP(C=COCC)CCP(C=COCC)C=COCC` [Compound 6], for which, under “2 min p.i.”, the Blood was 15.6 % Injected dose/organ, the Heart was 0.58 % Injected dose/organ, the “Heart/Blood Counts/Gram Ratio” value stood at 0.61 and the “Heart/Liver Counts/Gram Ratio” value came out at 0.18. In addition, the Liver (2 min p.i.) amounted to 44.3 % Injected dose/organ. Besides, under “60 min p.i.”, the Blood amounted to 3.26 % Injected dose/organ, the Heart was 0.46 % Injected dose/organ, the “Heart/Blood Counts/Gram Ratio” value is on record as 2.2 and the “Heart/Liver Counts/Gram Ratio” value is reported as 0.19. Under “60 min p.i.”, this compound came in with a Liver of 30.6 % Injected dose/organ.

With `CCOCCOCCP(CCOCCOCC)CCP(CCOCCOCC)CCOCCOCC` [Compound 8], for the setting “2 min p.i.”, the Blood is 11.0 % Injected dose/organ, the Heart worked out at 0.54 % Injected dose/organ, the “Heart/Blood Counts/Gram Ratio” value turned out to be 0.72 and the “Heart/Liver Counts/Gram Ratio” value was determined as 0.41. Where the note is “2 min p.i.”, this compound had a Liver of 19.0 % Injected dose/organ. Further, where the note is “60 min p.i.”, the Blood is recorded as 1.69 % Injected dose/organ, the Heart is on record as 0.42 % Injected dose/organ, the “Heart/Blood Counts/Gram Ratio” value was determined as 4.0 and the “Heart/Liver Counts/Gram Ratio” value is given as 0.46. The compound also registered a Liver (60 min p.i.) of 12.0 % Injected dose/organ.

In the case of `FC(F)(F)COCCCP(CCCOCC(F)(F)F)CCP(CCCOCC(F)(F)F)CCCOCC(F)(F)F` [Compound 10], for the setting “2 min p.i.”, the Blood worked out at 40.5 % Injected dose/organ, the Heart turned out to be 0.43 % Injected dose/organ, the “Heart/Blood Counts/Gram Ratio” value was found to be 0.17 and the “Heart/Liver Counts/Gram Ratio” value is on record as 0.16. Moreover, the Liver (2 min p.i.) is reported as 35.2 % Injected dose/organ. For the same compound, where the note is “60 min p.i.”, the Blood was 7.59 % Injected dose/organ, the Heart is 0.14 % Injected dose/organ, the “Heart/Blood Counts/Gram Ratio” value is 0.3 and the “Heart/Liver Counts/Gram Ratio” value is 0.04. Moreover, the Liver (60 min p.i.) came out at 48.8 % Injected dose/organ.

In the case of `COC(C)CP(CCP(CC(C)OC)CC(C)OC)CC(C)OC` (centres unmarked) [Compound 11], for the setting “2 min p.i.”, the Blood worked out at 9.45 % Injected dose/organ, the Heart was determined as 0.31 % Injected dose/organ, the “Heart/Blood Counts/Gram Ratio” value was found to be 1.27 and the “Heart/Liver Counts/Gram Ratio” value worked out at 0.57. Besides, the Liver (2 min p.i.) came to 20.3 % Injected dose/organ. Under “60 min p.i.”, the Blood is 1.93 % Injected dose/organ, the Heart was determined as 0.62 % Injected dose/organ, the “Heart/Blood Counts/Gram Ratio” value is on record as 5.70 and the “Heart/Liver Counts/Gram Ratio” value stood at 0.75. Where the note is “60 min p.i.”, this compound registered a Liver of 12.0 % Injected dose/organ.

Regarding `CCC(CP(CCP(CC(CC)OC)CC(CC)OC)CC(CC)OC)OC` (centres unmarked) [Compound 12], for the setting “2 min p.i.”, the Blood is reported as 11.7 % Injected dose/organ, the Heart is listed as 0.70 % Injected dose/organ, the “Heart/Blood Counts/Gram Ratio” value is reported as 1.04 and the “Heart/Liver Counts/Gram Ratio” value amounted to 0.39. This compound also came in with a Liver (2 min p.i.) of 25.2 % Injected dose/organ. Besides, under “60 min p.i.”, the Blood was 1.63 % Injected dose/organ, the Heart is listed as 0.48 % Injected dose/organ, the “Heart/Blood Counts/Gram Ratio” value turned out to be 4.7 and the “Heart/Liver Counts/Gram Ratio” value is reported as 0.63. This compound also gave a Liver (60 min p.i.) of 9.72 % Injected dose/organ.

Regarding `CCOC(C)CP(CCP(CC(C)OCC)CC(C)OCC)CC(C)OCC` (centres unmarked) [Compound 13], under “2 min p.i.”, the Blood is reported as 7.17 % Injected dose/organ, the Heart was 1.21 % Injected dose/organ, the “Heart/Blood Counts/Gram Ratio” value was determined as 2.54 and the “Heart/Liver Counts/Gram Ratio” value is given as 0.70. Besides, for the setting “2 min p.i.”, the Liver is listed as 22.0 % Injected dose/organ. Further, under “60 min p.i.”, the Blood turned out to be 1.77 % Injected dose/organ, the Heart is on record as 0.96 % Injected dose/organ, the “Heart/Blood Counts/Gram Ratio” value is given as 7.9 and the “Heart/Liver Counts/Gram Ratio” value is on record as 1.25. This compound also came in with a Liver (60 min p.i.) of 10.6 % Injected dose/organ.

For `COCC(C)CP(CCP(CC(C)COC)CC(C)COC)CC(C)COC` (centres unmarked) [Compound 14], under “2 min p.i.”, the Blood stood at 15.4 % Injected dose/organ, the Heart was 0.41 % Injected dose/organ, the “Heart/Blood Counts/Gram Ratio” value is 0.41 and the “Heart/Liver Counts/Gram Ratio” value was 0.98. The same compound gave a Liver (2 min p.i.) of 5.80 % Injected dose/organ. Also, where the note is “60 min p.i.”, the Blood stood at 1.02 % Injected dose/organ, the Heart was found to be 0.05 % Injected dose/organ, the “Heart/Blood Counts/Gram Ratio” value is listed as 0.7 and the “Heart/Liver Counts/Gram Ratio” value is given as 0.39. For the setting “60 min p.i.”, the Liver turned out to be 1.54 % Injected dose/organ.
